Measured values published in the NIST ThermoML archive (doi:10.1016/j.jct.2018.10.015).
Numbers after ± are expanded uncertainties.

Legend:
[1] = 101.3 kPa, Liquid; for viscosity: Concentric cylinders viscometry; for mass density: Vibrating tube method
[2] = xn = mol fraction of the nth substance listed; conditions: 101.3 kPa, Liquid, x2 = 0; for viscosity: Concentric cylinders viscometry; for mass density: Vibrating tube method

Compound	viscosity ([1]; 293.15 K) [mPa·s]	mass density ([1]; 293.15 K) [kg/m3]	viscosity ([1]; 298.15 K) [mPa·s]	mass density ([1]; 298.15 K) [kg/m3]	viscosity ([1]; 303.15 K) [mPa·s]	mass density ([1]; 303.15 K) [kg/m3]	viscosity ([1]; 308.15 K) [mPa·s]	mass density ([1]; 308.15 K) [kg/m3]	viscosity ([1]; 313.15 K) [mPa·s]	mass density ([1]; 313.15 K) [kg/m3]	viscosity ([1]; 318.15 K) [mPa·s]	mass density ([1]; 318.15 K) [kg/m3]	viscosity ([1]; 323.15 K) [mPa·s]	mass density ([1]; 323.15 K) [kg/m3]	viscosity ([1]; 328.15 K) [mPa·s]	mass density ([1]; 328.15 K) [kg/m3]	viscosity ([2]; 293.15 K) [mPa·s]	mass density ([2]; 293.15 K) [kg/m3]	viscosity ([2]; 298.15 K) [mPa·s]	mass density ([2]; 298.15 K) [kg/m3]	also measured
CCCCn1cc[n+](C)c1C.O=S(=O)([N-]S(=O)(=O)C(F)(F)F)C(F)(F)F	133.6 ± 2.3	1423.1 ± 2.5	101.82 ± 1.6	1418.5 ± 2.5	79.23 ± 1.1	1413.9 ± 2.5	62.74 ± 0.78	1409.3 ± 2.5	50.56 ± 0.6	1404.8 ± 2.5	41.38 ± 0.5	1400.2 ± 2.5	34.32 ± 0.42	1395.6 ± 2.5	28.91 ± 0.35	1391 ± 2.5	–	–	–	–	–
CCn1cc[n+](C)c1C.O=S(=O)([N-]S(=O)(=O)C(F)(F)F)C(F)(F)F	89.88 ± 1.3	1495.8 ± 2.5	71.34 ± 0.92	1491 ± 2.5	57.64 ± 0.7	1486.3 ± 2.5	47.26 ± 0.58	1481.5 ± 2.5	39.24 ± 0.48	1476.7 ± 2.5	33 ± 0.4	1472 ± 2.5	28.05 ± 0.34	1467.2 ± 2.5	24.16 ± 0.29	1462.4 ± 2.5	–	–	–	–	–
CCOC(=O)OCC [diethyl carbonate]	0.805 ± 0.011	974.9 ± 2.4	0.751 ± 0.01	969.3 ± 2.4	0.702 ± 0.01	963.7 ± 2.4	0.659 ± 0.009	958 ± 2.4	0.62 ± 0.009	952.4 ± 2.4	0.584 ± 0.008	946.7 ± 2.4	0.552 ± 0.008	940.9 ± 2.4	0.523 ± 0.008	935.2 ± 2.4	–	–	–	–	–
CCOC(=O)OCC [diethyl carbonate] + CCCCn1cc[n+](C)c1C.O=S(=O)([N-]S(=O)(=O)C(F)(F)F)C(F)(F)F	–	–	–	–	–	–	–	–	–	–	–	–	–	–	–	–	0.805 ± 0.011	974.9 ± 2.4	0.751 ± 0.01	969.3 ± 2.4	viscosity ([2]; 303.15 K): 0.702 ± 0.01 mPa·s; mass density ([2]; 303.15 K): 963.7 ± 2.4 kg/m3; viscosity ([2]; 308.15 K): 0.659 ± 0.009 mPa·s; mass density ([2]; 308.15 K): 958 ± 2.4 kg/m3; viscosity ([2]; 313.15 K): 0.62 ± 0.009 mPa·s; mass density ([2]; 313.15 K): 952.4 ± 2.4 kg/m3; viscosity ([2]; 318.15 K): 0.584 ± 0.008 mPa·s; mass density ([2]; 318.15 K): 946.7 ± 2.4 kg/m3; viscosity ([2]; 323.15 K): 0.552 ± 0.008 mPa·s; mass density ([2]; 323.15 K): 940.9 ± 2.4 kg/m3; viscosity ([2]; 328.15 K): 0.523 ± 0.008 mPa·s; mass density ([2]; 328.15 K): 935.2 ± 2.4 kg/m3
CCOC(=O)OCC [diethyl carbonate] + CCn1cc[n+](C)c1C.O=S(=O)([N-]S(=O)(=O)C(F)(F)F)C(F)(F)F	–	–	–	–	–	–	–	–	–	–	–	–	–	–	–	–	0.805 ± 0.011	974.9 ± 2.4	0.751 ± 0.01	969.3 ± 2.4	viscosity ([2]; 303.15 K): 0.702 ± 0.01 mPa·s; mass density ([2]; 303.15 K): 963.7 ± 2.4 kg/m3; viscosity ([2]; 308.15 K): 0.659 ± 0.009 mPa·s; mass density ([2]; 308.15 K): 958 ± 2.4 kg/m3; viscosity ([2]; 313.15 K): 0.62 ± 0.009 mPa·s; mass density ([2]; 313.15 K): 952.4 ± 2.4 kg/m3; viscosity ([2]; 318.15 K): 0.584 ± 0.008 mPa·s; mass density ([2]; 318.15 K): 946.7 ± 2.4 kg/m3; viscosity ([2]; 323.15 K): 0.552 ± 0.008 mPa·s; mass density ([2]; 323.15 K): 940.9 ± 2.4 kg/m3; viscosity ([2]; 328.15 K): 0.523 ± 0.008 mPa·s; mass density ([2]; 328.15 K): 935.2 ± 2.4 kg/m3
COC(=O)OC [dimethyl carbonate]	0.629 ± 0.009	1069.7 ± 2.4	0.59 ± 0.008	1063.1 ± 2.4	0.555 ± 0.008	1056.4 ± 2.4	0.525 ± 0.008	1049.7 ± 2.4	0.495 ± 0.007	1043.1 ± 2.4	0.475 ± 0.007	1036.4 ± 2.4	0.446 ± 0.007	1029.6 ± 2.4	0.425 ± 0.007	1022.8 ± 2.4	–	–	–	–	–
COC(=O)OC [dimethyl carbonate] + CCCCn1cc[n+](C)c1C.O=S(=O)([N-]S(=O)(=O)C(F)(F)F)C(F)(F)F	–	–	–	–	–	–	–	–	–	–	–	–	–	–	–	–	0.629 ± 0.009	1069.7 ± 2.4	0.59 ± 0.008	1063.1 ± 2.4	viscosity ([2]; 303.15 K): 0.555 ± 0.008 mPa·s; mass density ([2]; 303.15 K): 1056.4 ± 2.4 kg/m3; viscosity ([2]; 308.15 K): 0.525 ± 0.008 mPa·s; mass density ([2]; 308.15 K): 1049.7 ± 2.4 kg/m3; viscosity ([2]; 313.15 K): 0.495 ± 0.007 mPa·s; mass density ([2]; 313.15 K): 1043.1 ± 2.4 kg/m3; viscosity ([2]; 318.15 K): 0.475 ± 0.007 mPa·s; mass density ([2]; 318.15 K): 1036.4 ± 2.4 kg/m3; viscosity ([2]; 323.15 K): 0.446 ± 0.007 mPa·s; mass density ([2]; 323.15 K): 1029.6 ± 2.4 kg/m3; viscosity ([2]; 328.15 K): 0.425 ± 0.007 mPa·s; mass density ([2]; 328.15 K): 1022.8 ± 2.4 kg/m3
COC(=O)OC [dimethyl carbonate] + CCn1cc[n+](C)c1C.O=S(=O)([N-]S(=O)(=O)C(F)(F)F)C(F)(F)F	–	–	–	–	–	–	–	–	–	–	–	–	–	–	–	–	0.629 ± 0.009	1069.7 ± 2.4	0.59 ± 0.008	1063.1 ± 2.4	viscosity ([2]; 303.15 K): 0.555 ± 0.008 mPa·s; mass density ([2]; 303.15 K): 1056.4 ± 2.4 kg/m3; viscosity ([2]; 308.15 K): 0.525 ± 0.008 mPa·s; mass density ([2]; 308.15 K): 1049.7 ± 2.4 kg/m3; viscosity ([2]; 313.15 K): 0.495 ± 0.007 mPa·s; mass density ([2]; 313.15 K): 1043.1 ± 2.4 kg/m3; viscosity ([2]; 318.15 K): 0.475 ± 0.007 mPa·s; mass density ([2]; 318.15 K): 1036.4 ± 2.4 kg/m3; viscosity ([2]; 323.15 K): 0.446 ± 0.007 mPa·s; mass density ([2]; 323.15 K): 1029.6 ± 2.4 kg/m3; viscosity ([2]; 328.15 K): 0.425 ± 0.007 mPa·s; mass density ([2]; 328.15 K): 1022.8 ± 2.4 kg/m3
